Values of other authors, collected in US8507698B2, “Artemisinin derivatives for the treatment of melanoma” (Lachifarma S.R.L. Laboratorio Chimico Farmaceutico Salentino, priority 2007, dated 2013).
pIC50: −log10 of the molar value.

System: cell line of oral cancer (YD-10B)
Conditions: read-out: CI50 (the source's name)

pIC50: 4.88
Structure (SMILES): CC(=O)O[C@H]1C(=O)[C@@]2(C)[C@H]([C@H](OC(=O)c3ccccc3)[C@]3(O)C[C@H](OC(=O)[C@H](O)[C@@H](NC(=O)c4ccccc4)c4ccccc4)C(C)=C1C3(C)C)[C@]1(OC(C)=O)CO[C@@H]1C[C@@H]2O [paclitaxel]
